In patent US20240148831A1, “COMBINATION TREATMENTS FOR CHOLESTASIS” (THE BOARD OF REGENTS OF THE UNIVERSITY OF OKLAHOMA, priority 2022, published 2024):

What was measured:
Format in all cases: in vivo
Cyp2c70 KO mice [1] = assay: Liver histopathology, serum transaminases and liver mRNA markers after 4 weeks of treatment in Cyp2c70 KO mice; conditions: female Cyp2c70 KO mice
From the text: (§1) The Cyp2c70 KO mice with Exon 4 deletion were generated by CRISPR/Cas-mediated genome engineering. Cas9 and gRNA (gRNA1 matching reverse strand of the Cyp2c70 gene: […] (SEQ ID NO:1); gRNA2 matching forward strand of the Cyp2c70 gene: […] (SEQ ID NO:2)) were co-injected into fertilized eggs of C57BL/6J mice. One F0 male founder mouse was identified by PCR followed by sequencing analysis to confirm deletion of an 888 bp genome region containing the entire Exon 4. This F0 founder was bred to a WT C57BL/6J mouse to obtain 3 F1 Cyp2c70+/−females confirming germline transmission. Further breeding of the F1 females with WT C57BL/6J mice (the Jackson Lab, Bar Harbor, ME) yielded WT mice and Cyp2c70+/−mice. Subsequent breeding of the Cyp2c70+/−offspring yielded WT mice and Cyp2c70−/− mice (Cyp2c70 KO). The Cyp2c70 KO mice were then bred via KO×KO breeding scheme. The WT littermates were used to generate WT mice via WT×WT breeding scheme. […] Mice were housed in micro-isolator cages with Biofresh performance bedding (Pelleted cellulose) under 7 AM-7 PM light cycle and 7 PM-7 AM dark cycle. GSK was mixed with chow diet to achieve an estimated 5 mg/kg/day intake based on 5 g/day food intake by a 25 g mouse. AAV-Null or AAV-FGF15 was injected via tail vein at a dose of 1×10^11 GC/mouse. Mice were euthanized following a 6 h fast from 9 am to 3 pm. Animals received humane care according to the criteria outlined in the “Guide for the Care and Use of Laboratory Animals.” All animal protocols were approved by the Institutional Animal Care and Use Committee of the University of Oklahoma Health Sciences Center.
Liver tissues and colon tissues were fixed in 4% paraformaldehyde and paraffin embedded. Hematoxylin and Eosin (H&E) staining was performed with an automated stainer. Sirius Red staining was performed with Direct Red 80 solution (Sigma #365548, St. Louis, MO). For immunohistochemistry, paraffin embedded tissues were deparaffinized and rehydrated, and after antigen retrieval, […] sections were incubated first with blocking buffer (5% BSA and 5% goat serum in PBS) for 1 h and then blocking buffer containing primary antibodies overnight at 4° C. After washing with PBS, the sections were incubated with secondary antibodies in SignalStain® Boost IHC Detection Reagent (Cell Signaling, #8114, Danvers, MA) for 1 h. Signal was then visualized using a DAB kit (Cell Signaling, #11724, Danvers, MA). The sections were counterstained with Hematoxylin. Images are acquired by using an EVOS M5000 imaging system (ThermoFisher Scientific, Grand Island, NY).
Total liver RNA was purified with Trizol (Sigma-Aldrich, St. Louis, MO). […] 18S was measured and used for normalization. […]

Cyp2c70 KO mice [2] = assay: Fecal bile acid composition and concentration by LC-MS in Cyp2c70 KO mice; conditions: 4 weeks
From the text: as §1
(§2) Bile acids were extracted from liver, whole gallbladder bile, whole small intestine with content, and dried feces in 90% ethanol. To collect fecal sample, an individual mouse was placed in a jar briefly and fresh feces were collected. Total bile acid amount was measured by a bile acid assay kit. Bile acid pool was calculated as the total bile acids in liver, gallbladder and small intestine. Bile acid composition in the gallbladder bile and the pooled fecal extracts was analyzed on a Thermo Scientific UltiMate 3000 UHPLC with a Waters Cortecs C18 column and a TSQ Quantis triple quadrupole mass spectrometer. Standard curves for bile acids and internal standard glycine-CDCA-d4 were generated with purified compounds and relative area under the curve (AUC) was calculated. To measure T-CDCA-d4 metabolism in fecal slurry mixtures, pooled fresh fecal sample from each group was resuspended in a reaction buffer consisting of 10% PBS (pH=7.4) and 90% 3 mM sodium acetate (pH=5.2) to a final suspension of 4 mg fecal sample/ml. T-CDCA-d4 was added to a final concentration of 20 ug/ml and the mixture was incubated at 37° C. for 6 h. An equal amount of methanol was added and the mixture was incubated on ice for 1 h to precipitate protein. After centrifugation, an aliquot of the supernatant was vacuum dried and resuspended in injection buffer (0.1% formic acid, 30% acetonitrile, 70% HPLC water), which was used for LC-MS measurement of bile acids as described above.

Cyp2c70 KO mice [3] = assay: Bile acid metabolism (fecal total bile acids, bile acid pool, gallbladder bile acid composition, liver CYP7A1/CYP8B1 mRNA) in Cyp2c70 KO mice
From the text: as §1, §2
Total liver RNA was purified with Trizol (Sigma-Aldrich, St. Louis, MO). Reverse transcription was performed by using Oligo dT primer and SuperScript III reverse transcriptase (ThermoFisher Scientific, Grand Island, NY). Real-time PCR was performed on a Bio-Rad CFX384 Real-time PCR system with iQ SYBR Green Supermix (Bio-Rad, Hercules, CA). 18S was measured and used for normalization. The comparative CT (Ct) method was used to determine the relative mRNA expression with the control group arbitrarily set as “1”.

Cyp2c70 KO mice [4] = assay: Gut barrier integrity (colon H&E and ZO-1 immunohistochemistry) in Cyp2c70 KO mice; conditions: 4 weeks
From the text: as §1
Liver tissues and colon tissues were fixed in 4% paraformaldehyde and paraffin embedded. Hematoxylin and Eosin (H&E) staining was performed with an automated stainer. Sirius Red staining was performed with Direct Red 80 solution (Sigma #365548, St. Louis, MO). […]

[5] = female Cyp2c70 KO mice, vs untreated mice

CCCC[C@]1(CC)CS(=O)(=O)c2cc(CNC(CC(=O)O)CC(=O)O)c(OC)cc2[C@@H](c2ccccc2)N1 [GSK, GSK2330672]
reduction of liver p21 mRNA (Cyp2c70 KO mice [1]; 4 weeks of treatment): did not affect
serum transaminases (ALT, AST) (Cyp2c70 KO mice [1]; 4 weeks of treatment): not altered
portal inflammation (inflammatory infiltration) and ductular reaction (Cyp2c70 KO mice [1]; 4 weeks of treatment from 12 weeks of age, F4/80, CK19, H&E stain): largely ineffective
portal fibrosis (Cyp2c70 KO mice [1]; 4 weeks of treatment, Sirius Red stain): largely ineffective
fecal DCA abundance (relative) (Cyp2c70 KO mice [2]; female Cyp2c70 KO mice): increased
fecal LCA abundance (relative) (Cyp2c70 KO mice [2]; female Cyp2c70 KO mice, untreated ~90% LCA): slightly reduced
fecal DCA amount (absolute) (Cyp2c70 KO mice [2]; [5]): higher
fecal LCA amount (absolute) (Cyp2c70 KO mice [2]; [5]): higher
fecal DCA amount (Cyp2c70 KO mice [2]; male Cyp2c70 KO mice): increased
fecal LCA amount (Cyp2c70 KO mice [2]; male Cyp2c70 KO mice): did not increase
hepatic CYP8B1 expression (Cyp2c70 KO mice [3]; female Cyp2c70 KO mice, 4 weeks): markedly increased
gallbladder T-CDCA abundance (Cyp2c70 KO mice [3]; female Cyp2c70 KO mice, 4 weeks, untreated printed as −70%): ~40%
gallbladder T-DCA abundance (Cyp2c70 KO mice [3]; female Cyp2c70 KO mice, 4 weeks, untreated ~1%): ~30%
gallbladder T-CA abundance (Cyp2c70 KO mice [3]; female Cyp2c70 KO mice, 4 weeks, vs untreated): without affecting
increase of fecal bile acid loss (excretion) (Cyp2c70 KO mice [3]; female Cyp2c70 KO mice, after 2 weeks treatment): ~2 fold
reduction of total bile acid pool (Cyp2c70 KO mice [3]; female Cyp2c70 KO mice, after 4 weeks of treatment): ~40%
gallbladder T-DCA abundance (Cyp2c70 KO mice [3]; male Cyp2c70 KO mice, 4 weeks): increasing
liver CYP7A1 mRNA expression (Cyp2c70 KO mice [3]; male Cyp2c70 KO mice, 4 weeks): induction
liver CYP8B1 mRNA expression (Cyp2c70 KO mice [3]; male Cyp2c70 KO mice, 4 weeks): induction
fecal bile acid excretion (Cyp2c70 KO mice [3]; male Cyp2c70 KO mice, after 2 weeks of treatment): increased
reduction of bile acid pool size (Cyp2c70 KO mice [3]; male Cyp2c70 KO mice, after 4 weeks of treatment): ~60%
colon ZO-1 level (immunohistochemistry) (Cyp2c70 KO mice [4]; female Cyp2c70 KO mice): failed to restore
colon ZO-1 level (immunohistochemistry) (Cyp2c70 KO mice [4]; male Cyp2c70 KO mice): failed to restore
histological features of the colon epithelium (H&E) (Cyp2c70 KO mice [4]; male and female Cyp2c70 KO mice): did not reveal abnormal histological features
